In US9120749B2, “Quinoline derivatives and MELK inhibitors containing the same” (ONCOTHERAPY SCIENCE, INC., priority 2010, dated 2015):
Where a name gives a salt, the structure may show the parent alone. Read-outs that look alike come from different tables or passages of the source.

Columns and labels:
[1] = target: MELK (Homo sapiens, UniProt Q14680); test: Kinase assay: MELK activity, phosphorylation of FITC-labeled histone H3 peptide measured by IMAP fluorescence polarization; type: biochemical; conditions: MELK kinase assay, IMAP fluorescence polarization, 50 micro-M ATP; read-out: IC50 (μM) (kinase assay)
Summary of the method: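 Compounds, serially diluted from 12.5 mM DMSO stocks to 1% final DMSO, were tested with FITC-labeled histone H3 peptide as substrate. The reaction was stopped with progressive binding solution. Fluorescence polarization was read after 0.5 hour at room temperature.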

[2] = tested on: T47D cells; test: Cell-based assay: anti-proliferative activity, Cell Counting Kit-8, 72 hours (T47D)
Summary of the method: (§1)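 Anti-MELK western blot on crude lysates → MELK status per line. Cells plated 96-well, compound exposure, CCK-8 readout at 72 h; IC50 calculated.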

[3] = tested on: A549 cells; test: Cell-based assay: anti-proliferative activity, Cell Counting Kit-8, 72 hours (A549); conditions: 72 hours
Summary of the method: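 A549 cells were seeded in 96-well plates and exposed to candidate inhibitors for 72 hours. Cell growth was then measured with Cell Counting Kit-8, and IC50 values were calculated from the resulting growth data.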

[4] = tested on: HT-1197 cells; test: Cell-based assay: anti-proliferative activity, Cell Counting Kit-8, 72 hours (HT-1197, negative control without MELK expression); conditions: HT1197 cells (negative control), 72 hours
Summary of the method: as §1

[5] = tested on: 22Rv1 cells; test: Cell-based assay: anti-proliferative activity, Cell Counting Kit-8, 72 hours (22Rv1)
[6] = tested on: DU4475 cells; test: Cell-based assay: anti-proliferative activity, Cell Counting Kit-8, 72 hours (DU4475)

MELK, sequence (Q14680 whole entry, looked up): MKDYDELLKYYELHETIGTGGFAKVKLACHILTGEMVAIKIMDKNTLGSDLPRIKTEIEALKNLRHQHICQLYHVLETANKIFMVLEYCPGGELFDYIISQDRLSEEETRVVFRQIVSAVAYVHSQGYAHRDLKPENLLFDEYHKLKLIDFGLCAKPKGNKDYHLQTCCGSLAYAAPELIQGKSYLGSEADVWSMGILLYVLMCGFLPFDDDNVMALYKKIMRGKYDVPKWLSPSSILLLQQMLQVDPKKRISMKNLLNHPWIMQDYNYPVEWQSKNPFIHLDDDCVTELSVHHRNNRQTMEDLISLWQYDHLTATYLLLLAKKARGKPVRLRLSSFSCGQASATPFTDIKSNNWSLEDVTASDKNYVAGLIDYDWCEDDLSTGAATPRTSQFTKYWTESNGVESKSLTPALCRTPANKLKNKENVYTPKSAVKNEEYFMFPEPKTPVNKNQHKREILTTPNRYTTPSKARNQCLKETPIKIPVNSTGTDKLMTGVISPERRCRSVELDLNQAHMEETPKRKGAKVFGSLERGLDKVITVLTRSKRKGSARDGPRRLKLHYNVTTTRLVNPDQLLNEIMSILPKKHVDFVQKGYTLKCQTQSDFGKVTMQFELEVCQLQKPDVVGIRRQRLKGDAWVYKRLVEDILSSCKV

SMILES | IC50 [1] | IC50 ([2]; Homo sapiens, T47D, 72 h) | IC50 ([3]; Homo sapiens, A549, 72 h) | IC50 ([4]; Homo sapiens, HT1197, 72 h) | IC50 ([5]; Homo sapiens) | IC50 ([6]; Homo sapiens, DU-4475) | IC50 ([2]; 72 hours) | IC50 [3] | IC50 [4] | IC50 [5] | IC50 [6]
CC(=O)c1cnc2ccc(-c3cc(F)c(O)c(Cl)c3)cc2c1N[C@H]1CC[C@H](NC(=O)[C@H](C)N)CC1 (stereo in doubt) [Example 878] | 0.0079 µM | 0.027 µM | 0.83 µM | 21 µM | 0.096 µM | 0.03 µM |  |  |  |  | 
CCC(=O)c1cnc2ccc(-c3cc(Cl)c(O)c(Cl)c3)cc2c1Nc1ccc(N2CCC(N(C)C)C2)nc1 (stereo not drawn) [Example 863, 1-(6-(3,5-dichloro-4-hydroxyphenyl)-4-((6-(3-(dimethylamino)pyrrolidin-1-yl)pyridin-3-yl)amino)quinolin-3-yl)propan-1-one] | 0.0039 µM | 0.44 µM | 0.5 µM | 14 µM | 0.59 µM | 0.31 µM |  |  |  |  | 
[2H]C([2H])([2H])N(C[C@H]1CC[C@H](Nc2c(C(C)=O)cnc3ccc(-c4cc(Cl)c(O)c(Cl)c4)cc23)CC1)C([2H])([2H])[2H] [Example 864, 1-(6-(3,5-dichloro-4-hydroxyphenyl)-4-((trans-4-((dimethyl-d6-amino)methyl)cyclohexyl)amino)quinolin-3-yl)ethanone dihydrochloride] | 0.0011 µM | 0.067 µM | 0.11 µM | 1.3 µM | 0.081 µM | 0.043 µM |  |  |  |  | 
CC(=O)c1cnc2ccc(-c3cc(Cl)c(O)c(Cl)c3)cc2c1N[C@H]1CC[C@H](C(=O)N(C)C)CC1 [Example 865, (1r,4r)-4-((3-acetyl-6-(3,5-dichloro-4-hydroxyphenyl)quinolin-4-yl)amino)-N,N-dimethylcyclohexanecarboxamide hydrochloride] | 0.0093 µM | 0.38 µM | 0.86 µM | 3.9 µM | 1.5 µM | 0.94 µM |  |  |  |  | 
CC(=O)c1cnc2cc(C)c(-c3cc(Cl)c(O)c(Cl)c3)cc2c1Nc1ccc(N2CCN(C)CC2)nc1 [Example 866, 1-(6-(3,5-dichloro-4-hydroxyphenyl)-7-methyl-4-((6-(4-methylpiperazin-1-yl)pyridin-3-yl)amino)quinolin-3-yl)ethanone hydrochloride] | 0.34 µM | 2.4 µM | 2.3 µM | 4.5 µM | 4.1 µM | 2.9 µM |  |  |  |  | 
CC(=O)c1cnc2ccc(-c3cc(F)c(O)c(Cl)c3)cc2c1Nc1cnc(C)c(CCN2CCCC2)c1 [Example 867, 1-(6-(3-chloro-5-fluoro-4-hydroxyphenyl)-4-((6-methyl-5-(2-(pyrrolidin-1-yl)ethyl)pyridin-3-yl)amino)quinolin-3-yl)ethanone] | 0.014 µM | 2.9 µM | 1.6 µM | 53 µM | 4.6 µM | 1.3 µM |  |  |  |  | 
CCN(CC)CCO[C@H]1CC[C@H](Nc2c(C(C)=O)cnc3ccc(-c4cc(F)c(O)c(Cl)c4)cc23)CC1 [Example 869, 1-(6-(3-chloro-5-fluoro-4-hydroxyphenyl)-4-((1R,4R)-4-(2-(diethylamino)ethoxy)cyclohexyl)amino)quinolin-3-yl)ethanone hydrochloride] | 0.01 µM | 0.084 µM | 0.23 µM | 0.7 µM | 0.32 µM | 0.26 µM |  |  |  |  | 
CC(=O)c1cnc2ccc(-c3cc(F)c(O)c(Cl)c3)cc2c1N[C@H]1CC[C@H](C(=O)N(C)C)CC1 [Example 870, (1r,4r)-4-((3-acetyl-6-(3-chloro-5-fluoro-4-hydroxyphenyl)quinolin-4-yl)amino)-N,N-dimethylcyclohexanecarboxamide hydrochloride] | 0.035 µM |  |  |  |  |  | 0.53 µM | 1.6 µM | 3.5 µM | 2.3 µM | 2.1 µM
CC(=O)c1cnc2ccc(-c3cc(Cl)c(O)c(Cl)c3)cc2c1Nc1cnc(C)c(CCN2CCCC2)c1 [Example 871, 1-(6-(3,5-dichloro-4-hydroxyphenyl)-4-((6-methyl-5-(2-(pyrrolidin-1-yl)ethyl)pyridin-3-yl)amino)quinolin-3-yl)ethanone] | 0.0028 µM | 1.8 µM | 0.4 µM | 25 µM | 0.82 µM | 0.33 µM |  |  |  |  | 
CC(=O)c1cnc2cc(C)c(-c3cc(Cl)c(O)c(Cl)c3)cc2c1N[C@H]1CC[C@H](CN2CCC(N)C2)CC1 (stereo partly drawn) [Example 872, 1-(4-((1R,4R)-4-((3-aminopyrrolidin-1-yl)methyl)cyclohexyl)amino)-6-(3,5-dichloro-4-hydroxyphenyl)-7-methylquinolin-3-yl)ethanone hydrochloride] |  | 17 µM | 100 µM | 100 µM | 14 µM | 0.26 µM |  |  |  |  | 
CC(=O)c1cnc2ccc(-c3cc(F)c(O)c(Cl)c3)cc2c1N[C@H]1CC[C@H](NC(=O)C2CCCN2C)CC1 (stereo partly drawn) [Example 874, N-(1R,4R)-4-((3-acetyl-6-(3-chloro-5-fluoro-4-hydroxyphenyl)quinolin-4-yl)amino)cyclohexyl)-1-methylpyrrolidine-2-carboxamide hydrochloride] | 0.016 µM | 0.04 µM | 0.14 µM | 1 µM | 0.18 µM | 0.12 µM |  |  |  |  | 
CC(=O)c1cnc2ccc(-c3cc(Cl)c(O)c(Cl)c3)cc2c1N[C@H]1CC[C@H](NC(=O)C2CCCN2C)CC1 (stereo partly drawn) [Example 875, N-(1R,4R)-4-((3-acetyl-6-(3,5-dichloro-4-hydroxyphenyl)quinolin-4-yl)amino)cyclohexyl)-1-methylpyrrolidine-2-carboxamide hydrochloride] | 0.0035 µM | 0.14 µM | 0.24 µM | 4.4 µM | 0.29 µM | 0.21 µM |  |  |  |  | 
CS(=O)(=O)c1cnc2ccc(-c3cc(Cl)c(O)c(Cl)c3)cc2c1Nc1cccc(CCN2CCCC2)c1 [Example 883, 2,6-dichloro-4-(3-(methylsulfonyl)-4-((3-(2-(pyrrolidin-1-yl)ethyl)phenyl)amino)quinolin-6-yl)phenol hydrochloride] |  | 1.4 µM | 1.9 µM | 100 µM | 1.5 µM | 0.53 µM |  |  |  |  | 
CS(=O)(=O)c1cnc2ccc(-c3cc(Cl)c(O)c(Cl)c3)cc2c1N[C@H]1CC[C@H](CN2CCCC2)CC1 [Example 890, 2,6-dichloro-4-(3-(methylsulfonyl)-4-((1R,4R)-4-(pyrrolidin-1-ylmethyl)cyclohexyl)amino)quinolin-6-yl) phenol hydrochloride] |  | 1.3 µM | 1.1 µM | 3 µM | 0.94 µM | 0.35 µM |  |  |  |  | 
CN(C)C1CCN(c2ccc(Nc3c(S(C)(=O)=O)cnc4ccc(-c5cc(Cl)c(O)c(Cl)c5)cc34)cn2)C1 (stereo not drawn) [Example 906, 2,6-dichloro-4-(4-((6-(3-(dimethyl-amino)pyrrolidin-1-yl)pyridin-3-yl)amino)-3-(methylsulfonyl)quinolin-6-yl)phenol hydrochloride] |  | 1.3 µM | 2 µM | 9.3 µM | 2 µM | 0.66 µM |  |  |  |  | 
CN(C)C[C@H]1CC[C@H](Nc2c(C(=O)C3CCCC3)cnc3ccc(-c4cc(Cl)c(O)c(Cl)c4)cc23)CC1 [Example 917, cyclopentyl(6-(3,5-dichloro-4-hydroxy-phenyl)-4-((1R,4R)-4-((dimethyl-amino)methyl)cyclohexyl)amino) quinolin-3-yl)methanone hydrochloride] |  | 0.7 µM | 0.68 µM | 3.3 µM | 0.91 µM | 0.19 µM |  |  |  |  | 
CN(C)C[C@H]1CC[C@H](Nc2c(C(=O)C(C)(C)C)cnc3ccc(-c4cc(Cl)c(O)c(Cl)c4)cc23)CC1 [Example 918, 1-(6-(3,5-dichloro-4-hydroxyphenyl)-4-((1R,4R)-4-((dimethylamino)methyl)cyclohexyl)amino)quinolin-3-yl)-2,2-dimethylpropan-1-one hydrochloride] |  | 3 µM | 5.5 µM | 10 µM | 6.6 µM | 3.2 µM |  |  |  |  | 
CC(=O)c1cnc2ccc(-c3cc(Cl)c(O)c(Cl)c3)cc2c1N[C@H]1CC[C@H](NC(=O)[C@@H](N)C(C)(C)C)CC1 [Example 922, (S)-N-((1r,4S)-4-((3-acetyl-6-(3,5-dichloro-4-hydroxyphenyl)quinolin-4-yl)amino)cyclohexyl)-2-amino-3,3-dimethylbutanamide hydrochloride] |  | 0.2 µM | 0.62 µM | 4.5 µM | 0.65 µM | 0.21 µM |  |  |  |  | 
O=C(c1cnc2ccc(-c3cc(Cl)c(O)c(Cl)c3)cc2c1Nc1cccc(CCN2CCCC2)c1)C1CCCC1 [Example 927, cyclopentyl(6-(3,5-dichloro-4-hydroxy-phenyl)-4-((3-(2-(pyrrolidin-1-yl)ethyl)phenyl)amino)quinolin-3-yl) methanone hydrochloride] |  | 1.3 µM | 0.71 µM | 12 µM | 0.78 µM | 0.48 µM |  |  |  |  | 
CC(N)C(=O)N[C@H]1CC[C@H](Nc2c(C(=O)C(C)(C)C)cnc3ccc(-c4cc(Cl)c(O)c(Cl)c4)cc23)CC1 (stereo partly drawn) [Example 928, 2-amino-N-((1R,4R)-4-((6-(3,5-dichloro-4-hydroxyphenyl)-3-pivaloyl-quinolin-4-yl)amino)cyclohexyl) propanamide hydrochloride] |  | 1.4 µM | 4.1 µM | 8.1 µM | 2 µM | 1.1 µM |  |  |  |  | 
